Assay results as given in paper PMC6514909, “Synthesis of New Derivatives of Benzofuran as Potential Anticancer Agents” (Molecules, 2019).
Entries after “also recorded” stand apart in the source; their conditions may differ.

Assays:
cancer cell lines = assay: MTT cytotoxicity, cancer cell lines overall; format: cell-based, human; settings: for cytotoxic properties toward cancer cell lines: K562, MOLT-4, HeLa, MTT, 48 h
Protocol: (§1) Fourteen new benzofuran derivatives were tested for their cytotoxic properties in K562, MOLT-4 (leukemia, suspension cells), HeLa (cervix carcinoma, adherent cells), and normal endothelial cells (HUVEC). First, we measured the viability of cells after 48 h incubation with the given compound at the concentration of 100 μM. Next, for compounds that reduced cancer cells survival for more than 50%, we determined IC50 values. Cells that were exposed to 1% DMSO (a vehicle) served as the control with 100% survival. Cells treated with 1 µM staurosporine served as the internal control of the cytotoxicity experiments.
(§2) Human umbilical vein endothelial cells (Life Technologies, Waltham, MA, USA) were cultured (according to the manufacturer instructions) in Medium 200 supplemented with Low Serum Growth Supplement. 1 × 10^4 HUVEC cells were seeded on each well on a 96-well plate (Nunc). The HeLa (human cervix carcinoma) K562 and MOLT-4 (leukemia) cells were cultured in RPMI 1640 medium supplemented with antibiotics and 10% fetal calf serum (HeLa, K562) in a 5% CO2-95% air atmosphere. 7 × 10^3 HeLa, K562, or MOLT-4 cells were seeded on each well on 96-well plate (Nunc). 24 h later cells were treated with the test compounds and then incubated for an additional 48 hours. Stock solutions of test compounds were freshly prepared in DMSO (dimethylsulfoxide). The final concentrations of compounds that were tested in the cell cultures were: 2 × 10^−1, 1 ×10^−1, 5 × 10^−2, 1 × 10^−2, 1 × 10^−3 and 1 × 10^−4 mM. The concentration of DMSO in the cell culture medium was 1%.
(§3) The values of IC50 (the concentration of test compound that is required to reduce the cell survival fraction to 50% of the control) were calculated from dose-response curves and used as a measure of cellular sensitivity to a given treatment.
(§4) The MTT [3-(4,5-dimethylthiazol-2-yl)-2,5-diphenyltetrazolium bromide; Sigma, St. Louis, MO, USA] assay determined the cytotoxicity of all the compounds, as described previously. Briefly, after 24 h or 48 h of incubation with the drug, the cells were treated with the MTT reagent, and incubation was continued for 2 h. MTT-formazan crystals were dissolved in 20% SDS and 50% DMF at pH 4.7 and absorbance was read at 570 and 650 nm on an ELISA-PLATE READER (FLUOstar Omega, BMG LABTECH GmbH, Ortenberg, Germany). As a control (100% viability), cells that were grown in the presence of medium vehicle only with 1% DMSO were used.

[1] = test system: HeLa (human cervix carcinoma) cells; assay: MTT cytotoxicity assay, HeLa; format: cell-based; settings: for IC50: Homo sapiens, HeLa, 48 h incubation with cells, MTT; for reduction of viability of HeLa cells: initial screening, 100 μM, 48 h
Protocol: as §1, §2, §3, §4

K562 (leukemia) cells = assay: MTT cytotoxicity assay, K562; format: cell-based, human; settings: for IC50: 48 h incubation with cells, MTT; for reduction of viability of K562 cells: initial screening, 100 μM, 48 h
Protocol: as §1, §2, §3, §4

MOLT-4 (leukemia) cells = assay: MTT cytotoxicity assay, MOLT-4; format: cell-based, human; settings: for IC50: Homo sapiens, MOLT-4, 48 h incubation with cells, MTT; for reduction of viability of MOLT-4 cells: initial screening, 100 μM, 48 h
Protocol: as §1, §2, §3, §4

[2] = test system: Human umbilical vein endothelial cells (HUVEC); assay: MTT cytotoxicity assay, HUVEC; format: cell-based; settings: for IC50: Homo sapiens, HUVEC, 48 h incubation with cells, MTT; for cytotoxicity against human normal endothelial cells: initial screening, 100 μM, 48 h
Protocol: as §1, §2, §3, §4

[3] = test system: caspase 3/7 in K562 cells; assay: Apo-ONE Homogeneous Caspase-3/7 Assay in K562 cells; format: cell-based, human; settings: compound at 5 × IC50 (staurosporine 1 µM), 18 h, 1% DMSO normalized to 1.0
Protocol: We have measured the activity of caspases 3 and 7 (caspase 3/7), which are markers of programmed cell death. […] The activity of caspase 3/7 was measured using pro-fluorescent peptide substrate.
20 × 10^3 K562 cells were seeded on each well of 96-well plate in RPMI 1640 medium supplemented with 10% fetal calf serum and antibiotics. Cells were grown for 24 h at 37 °C and 5% CO2. The test compounds were dissolved in DMSO and added to the cell culture. The concentration of tested benzo[b]furans in cell culture was 5 × IC50.
Cells treated with 1% DMSO served as a negative control, while cells incubated with staurosporine (a strong inducer of apoptosis) were used as a positive control. Cells were exposed to test compounds for 18 h at 37 °C and 5% CO2. Subsequently, Apo-ONE® Homogeneous Caspase-3/7 Assay (Promega, Madison, WI, USA) measured the activity of caspase 3 and 7, according to the manufacturer’s instructions. Briefly, the cells were lysed and incubated for 1.5 h with profluorescent substrate for caspase 3 and 7. Next, fluorescence was read at an excitation wavelength of 485 nm and emission of 520 nm with FLUOStar Omega plate reader (BMG-Labtech, Ortenberg, Germany).
Figure 5 Activity of caspase 3 and 7 in K562 cells treated with the test benzofurans 1c, 1e, 2d, 3d, or staurosporine for 18 h. Apoptosis was determined by Apo-ONE® Homogeneous Caspase-3/7 Assay (Promega, Madison, WI, USA). Abbreviations: DMSO—K562 cells treated with 1% DMSO. The caspase activation level in cells exposed to 1% DMSO was normalized to 1.0. Mean values +/− SD are shown.

[4] = test system: plasmid DNA (pcDNA3.1 HisC); assay: Digestion of plasmid DNA with BamHI restriction nuclease; format: biochemical; settings: 100 µM, overnight 37 °C, then BamHI 3 h; agarose gel
From the text: We hypothesized that a possible explanation of observed cytotoxicity might be due to an interaction of test benzofurans with genomic DNA (e.g., by intercalation). To verify this hypothesis, we investigated whether the test benzofurans have any effect on digestion of a plasmid DNA (pcDNA3.1 HisC) with endonuclease BamH1. pcDNA3.1 HisC contains a unique BamH1 restriction site which allows for plasmid linearization. Plasmid DNA exists in linear, superhelical, and circular forms that differ in electrophoretic mobility (Figure 6 lane 1). Plasmid DNA was converted to a linear form upon digestion with BamH1 (lane 2). […] In the presence of test compounds, pcDNA3.1 HisC was partially digested with Bam H1 restriction enzyme (Figure 6 lanes 4–7). Most of the plasmid DNA was converted to a linear form, however there is a circular form still present.
0.5 μg of plasmid DNA (pcDNAHisC, total length 5.5 kbp) containing a unique BamHI restriction site was dissolved in a 1× BamHI reaction buffer and then incubated overnight at 37 °C with the test compounds or daunorubicin, a strong intercalating agent, which was used as a positive control. The concentration of the test compounds and daunorubicin samples was 100 µM. In the next step, the reaction mixtures were digested with BamHI restriction endonuclease (2 U/μL) for 3 h at 37 °C. The total reaction volume was 10 μL. Products of the reaction were subjected to the 1% agarose gel electrophoresis in TBE buffer. The gel was stained with ethidium bromide and DNA fragments were visualized under a UV lamp (GBox, Syngene, Cambridge, UK).
Figure 6 Digestion of pcDNA3.1HisC (total length 5.5kbp) with BamH1 endonuclease. M—marker DNA; 1—not digested plasmid DNA; 2—plasmid DNA digested with BamH1 (DNA present in linear form); 3—plasmid DNA + daunorubicin + BamH1; 4—plasmid DNA + 1c + BamH1; 5—plasmid DNA + 2d + BamH1; 6—plasmid DNA + 1e + BamH1; and, 7—plasmid DNA + 3d + BamH1.

Which melting point does the source give for `COc1cc2c(C)c(C(=O)O)oc2c(C(C)=O)c1OC` [Compound 1, 7-Acetyl-5,6-dimethoxy-3-methylbenzofuran-2-carboxylic acid] here?
Its melting point is 212 to 214 °C.

Which “cytotoxic properties toward cancer cell lines” value (cancer cell lines) does the source give for `COc1cc2c(C)c(C(N)=O)oc2c(C(C)=O)c1OC` [Compound 1a, 7-Acetyl-5,6-dimethoxy-3-methylbenzofuran-2-carboxamide] here?
The value was “did not show the cytotoxic properties; also recorded: loss of cytotoxic properties”.

And the melting point?
Its melting point is 203 to 205 °C.

With `COC(=O)c1oc2c(C(C)=O)c(OC)c(OC)cc2c1C` [Compound 1b, Methyl 7-acetyl-5,6-dimethoxy-3-methyl-1-benzofuran-2-carboxylate] as the compound, how does the melting point read?
The melting point was 98 to 100 °C.

What does the source list for `COC(=O)c1oc2c(C(C)=O)c(OC)c(OC)cc2c1CBr` [Compound 1c, Methyl 7-acetyl-3-(bromomethyl)-5,6-dimethoxybenzofuran-2-carboxylate]?
IC50 [1]: 50 µM; reduction of viability of HeLa cells [1]: more than 50%; IC50 (K562 (leukemia) cells): 25 µM; IC50 (K562 (leukemia) cells; Homo sapiens, K562, 48 h): < 50 µM; reduction of viability of K562 cells (K562 (leukemia) cells): more than 50%; IC50 (MOLT-4 (leukemia) cells): 180 µM; reduction of viability of MOLT-4 cells (MOLT-4 (leukemia) cells): more than 50%; IC50 [2]: 30 µM; cytotoxicity against human normal endothelial cells [2]: cytotoxic; increase in the activity of caspase 3/7 [3]: about two-fold; inhibition of digestion of plasmid DNA with BamH1 / interaction with DNA [4]: to some extent, interact with DNA

With `COc1cc2c(C)c(Br)oc2c(C(C)=O)c1OC` [Compound 1d, 1-(2-Bromo-5,6-dimethoxy-3-methylbenzofuran-7-yl)ethanone] as the compound, how does the melting point read?
Its melting point is 94 to 95 °C.

Which results are given for `COc1cc2c(C)c(Br)oc2c(C(=O)CBr)c1OC` [Compound 1e, 2-Bromo-1-(2-bromo-5,6-dimethoxy-3-methylbenzofuran-7-yl)ethanone]?
IC50 [1]: 28 µM; reduction of viability of HeLa cells [1]: more than 50%; IC50 (K562 (leukemia) cells): 41 µM; IC50 (K562 (leukemia) cells; Homo sapiens, K562, 48 h): < 50 µM; reduction of viability of K562 cells (K562 (leukemia) cells): more than 50%; IC50 (MOLT-4 (leukemia) cells): 70 µM; reduction of viability of MOLT-4 cells (MOLT-4 (leukemia) cells): more than 50%; IC50 [2]: 30 µM; cytotoxicity against human normal endothelial cells [2]: cytotoxic; increase in the activity of caspase 3/7 [3]: five-fold; inhibition of digestion of plasmid DNA with BamH1 / interaction with DNA [4]: to some extent, interact with DNA

Which “cytotoxic properties toward cancer cell lines” value (cancer cell lines) does the source give for `CC(=O)c1cc2oc(C)c(C(N)=O)c2cc1O` [Compound 2a, 6-Acetyl-5-hydroxy-2-methylbenzofuran-3-carboxamide] here?
The value was “did not show the cytotoxic properties; also recorded: loss of cytotoxic properties”.

With `CC(=O)c1cc2oc(C)c(C(N)=O)c2c(Br)c1O` [Compound 2b, 6-Acetyl-4-bromo-5-hydroxy-2-methylbenzofuran-3-carboxamide] as the compound, how does the “cytotoxic properties toward cancer cell lines” value (cancer cell lines) read?
Its value is “loss of cytotoxic properties”.

With `CC(=O)c1cc2oc(C)c(C(=O)O)c2c(Br)c1O` [Compound 2e, 6-Acetyl-4-bromo-5-hydroxy-2-methylbenzofuran-3-carboxylic acid] as the compound, how does the melting point read?
The melting point was 196 to 197 °C.

For `COC(=O)c1c(C)oc2cc(C(O)C(Br)Br)c(OC)cc12` (stereo not shown) [Compound 3a, Methyl 6-(2,2-dibromo-1-hydroxyethyl)-5-methoxy-2-methylbenzofuran-3-carboxylate], which IC50 [1] is on record?
The IC50 was 80 µM.

What about the “reduction of viability of HeLa cells” value [1] of the same compound?
Its value is “more than 50%”.

What about the IC50 (K562 (leukemia) cells; Homo sapiens, K562, 48 h) of the same compound?
Its IC50 is 85 µM.

What about the “reduction of viability of K562 cells” value (K562 (leukemia) cells) of the same compound?
Its value is “more than 50%”.

What about the IC50 (MOLT-4 (leukemia) cells) of the same compound?
The IC50 was 85 µM.

And the “reduction of viability of MOLT-4 cells” value (MOLT-4 (leukemia) cells)?
Its value is “more than 50%”.

What about the IC50 [2] of the same compound?
The IC50 was 67 µM.

What about the “cytotoxicity against human normal endothelial cells” value [2] of the same compound?
The value was “cytotoxic”.

And the melting point?
Its melting point is 170 to 172 °C.

With `COc1cc2c(C(=O)O)c(C)oc2cc1C(C)=O` [Compound 3b, 6-Acetyl-5-Methoxy-2-Methylbenzofuran-3-Carboxylic Acid] as the compound, how does the melting point read?
Its melting point is 249 to 250 °C.

What does the source list for `COc1cc2c(C(N)=O)c(C)oc2cc1C(C)=O` [Compound 3c, 6-Acetyl-5-methoxy-2-methylbenzofuran-3-carboxamide]?
cytotoxic properties toward cancer cell lines (cancer cell lines): did not show the cytotoxic properties; also recorded: loss of cytotoxic properties; melting point: 223 to 224 °C

With `COC(=O)c1c(CBr)oc2cc(C(C)=O)c(OC)cc12` [Compound 3d, Methyl 6-acetyl-2-(bromomethyl)-5-methoxybenzofuran-3-carboxylate] as the compound, how does the IC50 [1] read?
Its IC50 is 35 µM.

And the “reduction of viability of HeLa cells” value [1]?
Its value is “more than 50%”.

And the IC50 (K562 (leukemia) cells)?
Its IC50 is 28 µM.

What about the IC50 (K562 (leukemia) cells; Homo sapiens, K562, 48 h) of the same compound?
The IC50 was less than 50 µM.

And the “reduction of viability of K562 cells” value (K562 (leukemia) cells)?
Its value is “more than 50%”.

What about the IC50 (MOLT-4 (leukemia) cells) of the same compound?
The IC50 was 55 µM.

And the “reduction of viability of MOLT-4 cells” value (MOLT-4 (leukemia) cells)?
The value was “more than 50%”.

And the IC50 [2]?
Its IC50 is 6 µM.

What about the “cytotoxicity against human normal endothelial cells” value [2] of the same compound?
Its value is “cytotoxic”.

What about the “increase in the activity of caspase 3/7” value [3] of the same compound?
Its value is “minimal, if any”.

And the “decrease of cytotoxicity against human cancer cells compared to the lead compounds VIII-X” value (cancer cell lines; compared to lead compounds VIII-X)?
The value was 5–10 folds.

Which “inhibition of digestion of plasmid DNA with BamH1 / interaction with DNA” value [4] does the source give for `COc1cccc2c1C(=O)c1c(O)c3c(c(O)c1C2=O)C[C@@](O)(C(C)=O)C[C@@H]3O[C@H]1C[C@H](N)[C@H](O)[C@H](C)O1` [Daunorubicin, reference compound] here?
The value was “completely inhibited”.

Which “increase in the activity of caspase 3/7” value [3] does the source give for `CN[C@@H]1C[C@H]2O[C@@](C)([C@@H]1OC)n1c3ccccc3c3c4c(c5c6ccccc6n2c5c31)C(=O)NC4` [staurosporine, reference compound] here?
Its value is “significantly increased”.
